“Also recorded” adds a separate entry of the source. Read-outs that look alike come from different tables or passages of the source.
What was measured:
[1] = Reported DCA concentration and clearance in rats (literature); type: in vivo, rat; conditions: oral 100 mg/kg vs. human i.v.
Method: Evans et al 1981 administered DCA orally, in 100 mg/kg doses, either once, or daily for seven days.

[2] = especially over prolonged periods, Stacpoole et al 1979; cited from earlier work
[3] = cited from earlier work
[4] = test system: pyruvate dehydrogenase enzyme complex; conditions: rats; Evans 1982; cited from earlier work
[5] = Reported DCA pharmacokinetics in dogs (literature); type: in vivo, dog; conditions: dogs vs. 0.5 hour in humans
From the text: Accordingly, dogs cannot be used as reliable models or predictors for the pharmacokinetic effects of DCA in humans.

serum lactate = assay: Serum/blood lactate concentration in human volunteers after intravenous DCA infusion; type: in vivo; conditions: for Serum lactate, baseline: before infusion; for Serum lactate, baseline / Serum lactate just before second infusion / Serum lactate 14 h after second infusion: mean ± SEM; for Serum lactate just before second infusion: second infusion 8 h later; for Level of statistical significance, (b) vs. placebo: just before second infusion; for Persistence of lactate reduction relative to DCA clearance: 60 mg/kg
Method: Eighteen human beings entered this study; all provided informed consent that was acceptable to an independent Institutional Review Board, which also approved the study design and toxicological coverage. The human subjects were all healthy, were fasted for 18 hours prior to the study infusions, and were all within 85% to 115% of ideal body weight, using actuarial tables published by the Metropolitan Life Insurance Company. Each received an accurately measured meal (late breakfast, 821 kcal total including 116 g of carbohydrate, 30 g of protein, and 32 g of fat).
(§1) Teflon venous catheters were placed in both forearms of all subjects. One, for drug administration, was left in place for 10 hours. The other, for blood sampling, was left in place for about 30 hours. Both venous cannulae were regularly flushed with a heparin-saline solution to avoid any risk of clogging or clotting. When blood was sampled, the first-drawn fluid was discarded, so that blood samples were not contaminated with the heparin-saline solution.
(§2) Sodium dichloroacetate (NaDCA; purchased in powdered form from TCI America, Inc., Portland, Oreg.) was dissolved in saline solution to provide a 10% sterile solution (i.e., 10 g of NaDCA in 100 ml solution) at a contract lab. The vials containing 10% solution were shipped to the study site, in Indiana, and then diluted to form approximately 2% solutions in intravenous drip bags. Exact concentrations depended to some extent on the weight of each patient; all concentrations were within 20 % of isotonic levels. A 2% solution was administered through one cannula into each test subject over a period of 30 minutes, at a dosage of 30 mg/kg (i.e, 30 milligrams of NaDCA salt per kilogram of body weight). The average total weight of NaDCA infused into each patient was about 2.26±0.54 g; total volume of solution was about 100 ml. […] Nine subjects received a single infusion of DCA, and nine received the saline placebo.
(§3) Samples of venous blood from the other cannula (in the opposite forearm) were taken, before and several times periodically after the intravenous infusion. The infusions were number-coded, and all solutions (both active and placebo) were colorless; therefore, this was a double-blinded study.
Blood samples were collected into tubes containing sodium heparin, and spun at 64 G (i.e., 64 times normal gravity) for 10 minutes, to remove blood cells. The supernatant was then deproteinized, using 6% perchloric acid; various other agents, such as acetonitrile, could alternately be used if desired. The deproteinized liquid was then centrifuged again at 64 G for 10 minutes, and the supernatant was decanted and divided into 0.20 mL aliquots. At least one aliquot was stored at -40° C. as a backup in case checks were needed, while tests were run on other aliquots.
Blood samples were assayed for lactate concentration at a registered clinical laboratory (SmithKline Beckman, in Evansville, Ind.), using a commercial assay kit sold by Sigma Chemical Company (St. Louis, Mo.). This assay uses an enzymatic procedure involving lactate dehydrogenase; it adds glycine to the samples as a buffer, along with a standardized excess amount of NAD. The lactate dehydrogenase enzyme converts lactate to pyruvate, and the hydrogen atoms that are liberated by this reaction convert NAD to reduced NAD (NADH). The NADH absorbs ultraviolet light at 340 nm, and the level of absorbance (measured by a spectrophotometer) is directly proportional to the amount of NADH in the sample, and thus to the amount of lactate that was initially present in the sample.
In a second set of test subjects (18 total: 9 test subjects and 9 saline placebo controls), sodium DCA was administered in an identical manner, using a single 30-minute infusion, at a dosage of 60 mg/kg. […]

[6] = dogs; Lukas et al 1980, Ribes et al 1979; cited from earlier work
[7] = DCA clearance from the blood of human subjects after intravenous infusion; type: in vivo
Method: as §1, §2, §3
Blood samples were collected into tubes containing sodium heparin, and spun at 64 G (i.e., 64 times normal gravity) for 10 minutes, to remove blood cells. The supernatant was then deproteinized, using 6% perchloric acid; various other agents, such as acetonitrile, could alternately be used if desired. […]

[8] = Side effects of DCA infusion in healthy volunteers; type: in vivo, human; conditions: 100 mg/kg infused within 30 minutes
Method: Accordingly, to ensure that this effect would not occur when DCA was administered, an initial dose of 100 mg/kg NaDCA was infused into test subjects, and a second dose of 50 mg/kg was infused 8 hours later.
The dose of 100 mg/kg is the highest dose so far administered to human beings within 30 minutes. […] This was not considered clinically significant and needed no treatment; it would be relatively unimportant in most of the pathological states that are proper subjects for treatment using DCA. However, the sedation side effect was regarded as creating a practical limit (100 mg/kg infused in 30 minutes or less) for tests on healthy volunteers.

[9] = humans, cited from earlier work
[10] = 100 + 50 group, 14 h after second infusion

O=C([O-])C(Cl)Cl.[Na+] [DCA, sodium dichloroacetate]
Inferred plasma concentration relative to that in human patients dosed intravenously [1]: about 1/10
Toxic effects of oral administration [2]: may have toxic effects
Peak DCA concentration in liver tissue ([3]; oral 100 mg/kg, once or daily for seven days, Evans et al 1981): about 25 μg of DCA per gram of liver tissue
DCA concentration in the liver over time ([3]; rats, Evans 1982): declined rapidly with time
DCA clearance ([3]; rats, in words): fairly rapid
Activation of the pyruvate dehydrogenase enzyme complex over time [4]: dropped off rapidly with time
Half-life in dogs relative to humans [5]: about 40 times longer
Duration of blood lactate reduction (FIG. 3 legend) (serum lactate; 60 mg/kg as printed in legend): more than 8 hours
Persistence of reduction in serum lactate after the first infusion (serum lactate; 100 mg/kg followed by 50 mg/kg 8 hours later): more than 22 hours
Duration of lactate reduction (serum lactate; 100 mg/kg single i.v. infusion): > 8 h
Persistence of lactate reduction relative to serum DCA (serum lactate; 100 mg/kg single i.v. infusion, in words): persistent reduction in serum lactate levels which significantly outlasted the serum DCA concentrations
Serum lactate, baseline (serum lactate; 60 + 30 group (mg/kg)): 1.19 ± 0.24 mM
Serum lactate just before second infusion (serum lactate; 60 + 30 group (mg/kg)): 0.72 ± 0.15 mM
Serum lactate 14 h after second infusion (serum lactate; 60 + 30 group (mg/kg)): 0.94 ± 0.12 mM
Level of statistical significance, (c) vs. placebo (serum lactate; 60 + 30 group, 14 h after second infusion): 0.021
Level of statistical significance, (b) vs. placebo (serum lactate; 60 + 30 group): 0.009
Serum lactate, baseline (serum lactate; 100 + 50 group (mg/kg)): 0.84 ± 0.10 mM
Serum lactate just before second infusion (serum lactate; 100 + 50 group (mg/kg)): 0.39 ± 0.04 mM
Serum lactate 14 h after second infusion (serum lactate; 100 + 50 group (mg/kg)): 0.32 ± 0.08 mM
Level of statistical significance, (c) vs. 60 + 30 (serum lactate; [10]): 0.004
Level of statistical significance, (c) vs. placebo (serum lactate; [10]): < 0.001
Level of statistical significance, (b) vs. placebo (serum lactate; 100 + 50 group): < 0.001
Time course of DCA concentration and lactate reduction (serum lactate; single 30 mg/kg i.v. infusion, in words, FIG. 1, 30 mg/kg): a peak of DCA concentration which rapidly dropped off, and a similar peak in lactate reduction which disappeared fairly rapidly; also recorded: closely paralleled (over time) the clearance of DCA from the blood
Duration of blood lactate reduction (serum lactate; single 30 mg/kg i.v. infusion, in words, 30 mg/kg): returned to normal levels within a few hours
Duration of blood lactate reduction (serum lactate; single 30 mg/kg i.v. infusion, in words, listed as NaDCA, 30 mg/kg): lasted only a few hours
Reversal of the decline in serum lactate levels (serum lactate; single 60 mg/kg i.v. infusion, at 6.5 hours and afterwards): no evidence of reversal of the decline in serum lactate levels
Persistence of lactate reduction relative to DCA clearance (serum lactate; single 60 mg/kg i.v. infusion, in words): significantly outlasted the persistence of serum DCA levels
Persistence of lactate reduction relative to DCA clearance (serum lactate; single 60 mg/kg i.v. infusion, in words, listed as NaDCA): lasted substantially longer and persisted even after substantially all of the DCA had been cleared from the patient's blood; also recorded: substantially outlasted the clearance of DCA from the circulation
Duration of reduction in plasma lactate after start of second infusion (serum lactate; two infusions eight hours apart): more than 12 hours
Duration of serum lactate reduction using two injections over 24 h (serum lactate; two injections, about 40 mg/kg DCA or more per injection): ≥ 24 h
Half-life [6]: 1140 to 1440 min
Clearance rate of 30 mg/kg dose with vs. without prior DCA exposure ([7]; 30 mg/kg i.v., prior 60 mg/kg 8 hours earlier, FIG. 4): comparable
Clearance rate of 50 mg/kg dose after prior exposure vs. single 60 mg/kg dose ([7]; 50 mg/kg i.v., prior 100 mg/kg 8 hours earlier): similar
DCA clearance from blood ([7]; single 60 mg/kg i.v., by 6.5 hours): nearly all of the DCA had already been avidly cleared from the blood
Duration of transient sedation or sleepiness [8]: about 20 minutes
Transient sedation or sleepiness [8]: a number of subjects reported transient sedation or sleepiness
Half-life ([9]; Lukas et al 1980, Ribes et al 1979): 30 min
Half-life ([9]; Wells et al 1980): 31 min
Time to complete elimination ([9]; Wells et al 1980): ≤ 5 h
Clearance from circulating blood ([9]; in words): rapidly cleared

Reference: patent publication US5587397A, “Reduction of elevated blood lactate using twice-daily dichloroacetate” (Cypros Pharmaceutical Corporation, priority 1995, dated 1996)
